Results taken from patent publication US9187524B2, “Broad spectrum antibiotic arylomycin analogs” (The Scripps Research Institute, priority 2010, dated 2015).
Converted amounts (≈) assume the structure as drawn. Where two headings read alike, the source gives them in different places.

Legend:
[1] = tested on: spsB(S29P) S. epidermidis RP62A; experiment: microbe, parasite or virus in culture; assay type: cell-based, Staphylococcus epidermidis
wild type E. coli MG1655 = experiment: microbe, parasite or virus in culture; assay type: cell-based, Escherichia coli; conditions: for MIC: Escherichia coli, MG1655, read-out: MIC, E. coli
[2] = tested on: wild type P. aeruginosa PAO1; experiment: microbe, parasite or virus in culture; assay type: cell-based, Pseudomonas aeruginosa
[3] = tested on: lepB(P84L) E. coli MG1655; experiment: microbe, parasite or virus in culture; assay type: cell-based, Escherichia coli; conditions: for MIC: Escherichia coli, MG1655, read-out: MIC, E. coli P84L
wild type S. aureus 8325 = experiment: microbe, parasite or virus in culture; assay type: cell-based, Staphylococcus aureus
[4] = tested on: wild type S. epidermidis RP62A; experiment: microbe, parasite or virus in culture; assay type: cell-based, Staphylococcus epidermidis; conditions: for MIC: Staphylococcus epidermidis, read-out: MIC, S. epidermidis
[5] = tested on: lepB(P84L) P. aeruginosa PAO1; experiment: microbe, parasite or virus in culture; assay type: cell-based, Pseudomonas aeruginosa; conditions: for MIC: Pseudomonas aeruginosa, PAO1, read-out: MIC, P. aeruginosa P84L
[6] = tested on: lepB(P29S) S. aureus 8325; experiment: microbe, parasite or virus in culture; assay type: cell-based, Staphylococcus aureus; conditions: for MIC: Staphylococcus aureus, read-out: MIC, S. aureus P29S
[7] = tested on: S. epidermidis ATCC 35984; experiment: MIC; assay type: cell-based; conditions: Table 1
R. equi = experiment: microbe, parasite or virus in culture; assay type: cell-based; conditions: Rhodococcus (subgen. Prescottella) equi; Table 4
C. efficiens = experiment: microbe, parasite or virus in culture; assay type: cell-based; conditions: Corynebacterium efficiens, Table 4; read-out: MIC, C. efficiens
B. brevis = experiment: microbe, parasite or virus in culture; assay type: cell-based, Brevibacillus brevis; conditions: for MIC: Brevibacillus brevis, Table 4, read-out: MIC, B. brevis
R. opacus = experiment: microbe, parasite or virus in culture; assay type: cell-based; conditions: Rhodococcus opacus; Table 4; read-out: MIC, R. opacus
S. pyogenes = experiment: microbe, parasite or virus in culture; assay type: cell-based, Streptococcus pyogenes
L. lactis = experiment: microbe, parasite or virus in culture; assay type: cell-based, Lactococcus lactis; conditions: Lactococcus lactis, Table 4
S. agalactiae = experiment: microbe, parasite or virus in culture; assay type: cell-based, Streptococcus agalactiae
C. glutamicum = experiment: microbe, parasite or virus in culture; assay type: cell-based, Corynebacterium glutamicum; conditions: Corynebacterium glutamicum; Table 4; read-out: MIC, C. glutamicum
S. pneumoniae = experiment: microbe, parasite or virus in culture; assay type: cell-based, Streptococcus pneumoniae

Molecule | MIC, Resistant Se [1] [µg/mL] | MIC, Resistant Ec (wild type E. coli MG1655) [µg/mL] | MIC, Resistant Pa [2] [µg/mL] | MIC, Sensitive Ec [3] [µg/mL] | MIC, Resistant Sa (wild type S. aureus 8325) [µg/mL] | MIC, Sensitive Se [4] [µg/mL] | MIC, Sensitive Pa [5] [µg/mL] | MIC, Sensitive Sa [6] [µg/mL] | fold loss of activity against sensitized S. aureus relative to arylomycin C16 [6] | fold loss of activity against sensitized P. aeruginosa relative to arylomycin C16 [5] | other results
CCCCCCCCCCCCCCCC(=O)N1CC(O)CC1C(=O)NC(C)C(=O)NCC(=O)N(C)C1C(=O)NC(C)C(=O)NC(C(=O)O)Cc2ccc(O)c(c2)-c2cc1ccc2O (stereo not shown) [Compound 19] | 8 (≈ 8.96 µM) | >64 | >64 | >64 | >64 | 4 (≈ 4.48 µM) | >64 | 4 (≈ 4.48 µM) |  |  | 
CCCCCCCCCCCCCCCC(=O)N(C)C(CO)C(=O)NC(C)C(=O)NCC(=O)N(C)C1C(=O)NC(CCCC)C(=O)NC(C(=O)O)Cc2ccc(O)c(c2)-c2cc1ccc2O (stereo not shown) [Compound 29] |  |  |  |  |  |  |  |  | 32 fold |  | 
Arylomycin A2 [reference compound] |  |  |  |  |  |  |  |  |  |  | MIC, E. coli MG1655 (wild type E. coli MG1655; Table 1): >128 µM; MIC, S. aureus 8325 (wild type S. aureus 8325; Table 1): >128 µM; MIC, S. epidermidis ATCC 35984 [7]: 1 µM
CCCCCCCCCCCCCCCC(=O)N(C)C(CO)C(=O)NC(C)C(=O)NCC(=O)N(C)C1C(=O)NC(CCCCC)C(=O)NC(C(=O)O)Cc2ccc(O)c(c2)-c2cc1ccc2O (stereo not shown) [Compound 30] |  |  |  |  |  |  |  |  | 32 fold |  | 
CCCCCCCCCCCCCCCC(=O)N(C)C(CO)C(=O)NC(C)C(=O)NCC(=O)N(C)C1C(=O)NC(CC(C)C)C(=O)NC(C(=O)O)Cc2ccc(O)c(c2)-c2cc1ccc2O (stereo not shown) [Compound 35] |  |  |  |  |  |  |  |  |  | > 16 fold | 
CCCCCCCCCCCCCCCC(=O)N(C)[C@H](CO)C(=O)N(C)[C@H](C)C(=O)NCC(=O)N(C)[C@@H]1C(=O)N[C@@H](C)C(=O)N[C@H](C(=O)O)Cc2ccc(O)c(c2)-c2cc1ccc2O [Compound 18] | >64 | >64 | >64 | >64 | >64 | >64 | >64 | >64 |  |  | 
CCCCCCCCCCCCCCCC(=O)N(C)C(CO)C(=O)NC(C)C(=O)NCC(=O)N(C)C1C(=O)NC(C(C)C)C(=O)NC(C(=O)O)Cc2ccc(O)c(c2)-c2cc1ccc2O (stereo not shown) [Compound 34] |  |  |  |  |  |  |  |  |  | 4 fold | 
CCCCCCCCCCCCCCCC(=O)N(C)[C@H](CO)C(=O)N[C@H](C)C(=O)NCC(=O)N(C)[C@@H]1C(=O)NC(C)C(=O)N[C@H](C(=O)O)Cc2cc(c(O)c([N+](=O)[O-])c2)-c2cc1ccc2O (stereo partly shown) [Arylomycin B-C16] |  |  |  |  |  |  |  |  |  |  | MIC (R. equi): 32 µg/mL (≈ 34.6 µM); MIC (wild type E. coli MG1655): > 64 µg/mL; MIC [3]: 2 µg/mL (≈ 2.16 µM); MIC (C. efficiens): 16 µg/mL (≈ 17.3 µM); MIC (B. brevis): > 64 µg/mL; activity against B. brevis (B. brevis; MHBII broth and nutrient broth): no activity; MIC (R. opacus): 4 µg/mL (≈ 4.32 µM); MIC (S. pyogenes; Streptococcus pyogenes, Table 4, read-out: MIC, S. pyogenes): 4 µg/mL (≈ 4.32 µM); MIC, S. pyogenes (S. pyogenes; Table 14): 4 µg/mL (≈ 4.32 µM); MIC (L. lactis): 32 µg/mL (≈ 34.6 µM); MIC [4]: 0.13 µg/mL (≈ 0.14 µM); MIC [5]: 4 µg/mL (≈ 4.32 µM); fold more activity against Streptococcus agalactiae than arylomycin C16 (S. agalactiae): greater than 16 fold; MIC (S. agalactiae; Streptococcus agalactiae, Table 4, read-out: MIC, S. agalactiae): 8 µg/mL (≈ 8.64 µM); MIC, S. agalactiae (S. agalactiae; Table 14): 8 µg/mL (≈ 8.64 µM); MIC (C. glutamicum): 2 µg/mL (≈ 2.16 µM); MIC [6]: 8 µg/mL (≈ 8.64 µM); MIC (S. pneumoniae; Streptococcus pneumoniae, Table 4, read-out: MIC, S. pneumoniae): 16 µg/mL (≈ 17.3 µM); MIC, S. pneumoniae (S. pneumoniae; Table 14): 16 µg/mL (≈ 17.3 µM)
CCCCCCCCCCCCCCCC(=O)N(C)[C@H](CO)C(=O)N[C@H](C)C(=O)NCC(=O)N(C)[C@@H]1C(=O)NCC(=O)N[C@H](C(=O)O)Cc2ccc(O)c(c2)-c2cc1ccc2O [Compound 26] |  |  |  |  |  |  |  |  | > 16 fold | > 16 fold | fold loss of activity against sensitized E. coli relative to arylomycin C16 [3]: 32 fold; fold loss of activity against S. epidermidis relative to arylomycin C16 [4]: 32 fold
CCCCCCCCCCCCCCCC(=O)N(C)C(CO)C(=O)NC(C)C(=O)NCC(=O)N(C)C1C(=O)NC(CC(F)(F)F)C(=O)NC(C(=O)O)Cc2ccc(O)c(c2)-c2cc1ccc2O (stereo not shown) [Compound 33] |  |  |  |  |  |  |  |  | at least 16 fold | at least 16 fold | fold loss of activity against sensitized E. coli relative to arylomycin C16 [3]: 8 fold; fold loss of activity against S. epidermidis relative to arylomycin C16 [4]: 32 fold
CCCCCCCCCCCCCCCC(=O)N[C@H](CO)C(=O)N[C@H](C)C(=O)NCC(=O)N(C)[C@@H]1C(=O)N[C@@H](C)C(=O)N[C@H](C(=O)O)Cc2ccc(O)c(c2)-c2cc1ccc2O [Compound 17] | 32 (≈ 36.9 µM) | >64 | >64 | 4 (≈ 4.61 µM) | >64 | 1 (≈ 1.15 µM) | >64 | 16 (≈ 18.5 µM) |  |  | 
CCCCCCCCCCCCCCCC(=O)N(C)[C@H](CO)C(=O)N[C@H](C)C(=O)NCC(=O)N(C)[C@@H]1C(=O)N[C@@H](C)C(=O)N[C@H](C(=O)O)Cc2cc(N)c(O)c(c2)-c2cc1ccc2O [Compound 36] |  |  |  |  |  |  |  |  | 32 fold | 8 fold | MIC (wild type E. coli MG1655): > 64 µg/mL; fold loss of activity against sensitized E. coli relative to arylomycin C16 [3]: 8 fold; MIC [3]: 16 µg/mL (≈ 17.9 µM); MIC (B. brevis): > 64 µg/mL; MIC [4]: 8 µg/mL (≈ 8.93 µM); fold loss of activity against S. epidermidis relative to arylomycin C16 ([4]; sensitive (wild type) strain): 32 fold; MIC [5]: 32 µg/mL (≈ 35.7 µM); MIC [6]: 64 µg/mL (≈ 71.4 µM)
CCCCCCCCCCCCCCCC(=O)N(C)C(CO)CCC(=O)NC(C)C(=O)NCC(=O)N(C)C1C(=O)NC(C)C(=O)NC(C(=O)O)Cc2ccc(O)c(c2)-c2cc1ccc2O (stereo not shown) [Compound 24] | 16 (≈ 17.6 µM) | >64 | >64 | >64 | 16 (≈ 17.6 µM) | 8 (≈ 8.8 µM) | >64 | 4 (≈ 4.4 µM) |  |  | 
